Experimental data from US12692248B2, “Solid state forms of (S)-N-(3-(2-(((R)-1-hydroxypropan-2-yl)amino)-6-morpholinopyridin-4-yl)-4-methylphenyl)-3-(2,2,2-trifluoroethyl)pyrrolidine-1-carboxamide and salts thereof” (PIERRE FABRE MEDICAMENT, priority 2021, dated 2026).
Like-named read-outs stand apart in the source and are kept apart here.

Experiments:
Assay type in all cases: physicochemical
[1] = Dynamic Vapor Sorption (DVS); conditions: DVS
Protocol: Dynamic Vapor Sorption (DVS) Moisture sorption/desorption data was collected on a DVS Intrinsic PLUS (SMS, UK). The sample was placed into a tared sample chamber and automatically weighed. The sample was dried at 40° C./0%0 RH until the dm/dt was less than 0.00200 and cooled to 25° C. [table]

[2] = Stability of Compound 2 in 0.5% MC/0.1% Tween 80 at 10 mg/mL; conditions: suspension 10 mg/mL in 0.5% MC/0.1% Tween 80, RT, 7 days
Protocol: A solution of Compound 2 was evaluated for stability in 0.5% MC/0.1% Tween 80 at 10 mg/mL. 10.7 mg of Compound 2 was weighed into a sample vial, and then 500 μL of 1% MC and 500 μL of 0.2% Tween 80 were added to obtain a suspension at 10 mg/mL (calculated as the free base). The mixture was kept stirring for 15 min at RT and the suspension was placed at RT for 7 days.

[3] = Comparison dissolution trials in water and biorelevant media; conditions: for solubility at 0.5 h: read-out: Solubility (mg/mL) 0.5 h; for solubility at 2 h: read-out: Solubility (mg/mL) 2 h; for solubility at 24 h: read-out: Solubility (mg/mL) 24 h
Protocol: Comparison dissolution trials were performed on Compounds 1 and 2. About 20 mg of each sample was weighed into a sample vial and then 4 mL of media was added to make a suspension. All suspensions were shaken at 37° C. with a rate of 200 rpm. […] He pH of the filtrate was measured, and the filter cake was analyzed by XRPD. […] In biorelevant dissolution media FaSSIF and FeSSIF, the solubility of the Compound 1 and Compound 2 were similar.

[4] = Thermodynamic solubility in 13 solvents at RT and 50° C. by UPLC; conditions: for solubility: thermodynamic from solid; for XRPD at 1 d / XRPD at 4 d: residual solid
Protocol: Thermodynamic solubility of Compound 2 was measured in 13 solvents at RT and 50° C. by UPLC, respectively. […] In most of other selected solvents, the compound was almost insoluble (<0.5 mg/mL) except in EtOH and water where it was slightly soluble (6-9 mg/mL).

[5] = Stability at 60° C. and 40° C. at 75% relative humidity for 9 days (UPLC purity, XRPD); conditions: UPLC; for Purity −3 d: 3 days; for Purity −9 d: 9 days
Protocol: Compound 1 and Compound 2 were evaluated for stability at 60° C. and 40° C. at 75% relative humidity for 9 days. At 0, 3, and 9 days, the samples were dissolved with diluent to prepare a solution for purity analysis by UPLC. Solid samples were also analyzed by XRPD to check the crystal form.

[6] = simulated gastric fluid, thermodynamic from solid, SGF, 37° C.
[7] = thermodynamic from solid, FaSSIF, 37° C.
[8] = thermodynamic from solid, FeSSIF, 37° C.
[9] = thermodynamic from solid, Water, 37° C.

In the case of `Cc1ccc(NC(=O)N2CC[C@@H](CC(F)(F)F)C2)cc1-c1cc(N[C@H](C)CO)nc(N2CCOCC2)c1.Cl` [Compound 2, (S)—N-(3-(2-(((R)-1-hydroxypropan-2-yl)amino)-6-morpholinopyridin-4-yl)-4-methylphenyl)-3-(2,2,2-trifluoroethyl)pyrrolidine-1-carboxamide hydrochloride], the hygroscopicity [1] is reported as “slightly hydroscopic”, the “water uptake at 80% RH” value ([1]; 25° C., 80% relative humidity) is reported as 0.66% and the “water uptake at 90% relative humidity” value ([1]; 25° C., 90% relative humidity) is reported as 0.95%. The form change [2] was “No form change”, the purity decrease ([2]; UPLC) was 0.13% and the “solubility of Compound 1 and Compound 2 compared” value ([3]; FaSSIF and FeSSIF) was “similar”. For the same molecule, the “pH of the filtrate” value ([3]; Water medium) was “(pH 3.1)”, the solubility at 0.5 h [3, 6] was 0.2 mg/mL and the solubility at 2 h [3, 6] was 0.27 mg/mL. The solubility at 24 h [3, 6] was 0.39 mg/mL, the solubility at 0.5 h [3, 7] was 0.024 mg/mL and the solubility at 2 h [3, 7] was 0.021 mg/mL. The solubility at 24 h [3, 7] was 0.027 mg/mL, the solubility at 0.5 h [3, 8] was 0.21 mg/mL and the solubility at 2 h [3, 8] was 0.2 mg/mL. It also gave a solubility at 24 h [3, 8] of 0.23 mg/mL, a solubility at 0.5 h [3, 9] of 1.42 mg/mL and a solubility at 2 h [3, 9] of 1.36 mg/mL. The solubility at 24 h [3, 9] was 2.49 mg/mL, the solubility ([3]; thermodynamic from solid, water, 37° C.) was roughly 2500 µg/mL and the solubility ([4]; ACN, 50 °C, organic solvent or mixture, ACN, 50° C., read-out: Solubility at 50° C.(mg/mL)) was 0.92 mg/mL. The solubility ([4]; ACN, organic solvent or mixture, ACN, RT, read-out: Solubility at RT) was 0.01 mg/mL, the solubility ([4]; EA, 50 °C, organic solvent or mixture, EA, 50° C., read-out: Solubility at 50° C.(mg/mL)) was 0.09 mg/mL and the solubility ([4]; EA, organic solvent or mixture, EA, RT, read-out: Solubility at RT) was 0.06 mg/mL. The solubility ([4]; EtOH and water, water, EtOH and water (slightly soluble), read-out: solubility) was 6 to 9 mg/mL, the solubility ([4]; EtOH, 50 °C, organic solvent or mixture, EtOH, 50° C., read-out: Solubility at 50° C.(mg/mL)) was 8.82 mg/mL and the solubility ([4]; EtOH, organic solvent or mixture, EtOH, RT, read-out: Solubility at RT) was 7.15 mg/mL. It also gave a solubility ([4]; Hept, 50 °C, organic solvent or mixture, Hept, 50° C., read-out: Solubility at 50° C.(mg/mL)) of 0.01 mg/mL, a solubility ([4]; Hept, organic solvent or mixture, Hept, RT, read-out: Solubility at RT) of 0.01 mg/mL and a solubility ([4]; IPA, 50 °C, organic solvent or mixture, IPA, 50° C., read-out: Solubility at 50° C.(mg/mL)) of 2.8 mg/mL. The solubility ([4]; IPA, organic solvent or mixture, IPA, RT, read-out: Solubility at RT) was 1.69 mg/mL, the solubility ([4]; IPAC, 50 °C, organic solvent or mixture, IPAC, 50° C., read-out: Solubility at 50° C.(mg/mL)) was 0.03 mg/mL and the solubility ([4]; IPAC, organic solvent or mixture, IPAC, RT, read-out: Solubility at RT) was 0.02 mg/mL. It also gave a solubility ([4]; MEK, 50 °C, organic solvent or mixture, MEK, 50° C., read-out: Solubility at 50° C.(mg/mL)) of 0.28 mg/mL, a solubility ([4]; MEK, organic solvent or mixture, MEK, RT, read-out: Solubility at RT) of 0.01 mg/mL and a solubility ([4]; MIBK, 50 °C, organic solvent or mixture, MIBK, 50° C., read-out: Solubility at 50° C.(mg/mL)) of 0.11 mg/mL. The solubility ([4]; MIBK, organic solvent or mixture, MIBK, RT, read-out: Solubility at RT) was 0.05 mg/mL, the solubility ([4]; MTBE, 50 °C, organic solvent or mixture, MTBE, 50° C., read-out: Solubility at 50° C.(mg/mL)) was 0.01 mg/mL and the solubility ([4]; MTBE, organic solvent or mixture, MTBE, RT, read-out: Solubility at RT) was 0.02 mg/mL. For the same molecule, the solubility ([4]; MeOH, 50 °C, organic solvent or mixture, MeOH, 50° C., read-out: Solubility at 50° C.(mg/mL)) was roughly 102 mg/mL, the “Solubility at RT” value ([4]; MeOH, RT, hydrochloride) was 54670 µg/mL and the solubility ([4]; MeOH, organic solvent or mixture, MeOH, RT, read-out: Solubility at RT) was roughly 55 mg/mL. The solubility ([4]; acetone, 50 °C, organic solvent or mixture, Acetone, 50° C., read-out: Solubility at 50° C.(mg/mL)) was 0.45 mg/mL, the solubility ([4]; acetone, organic solvent or mixture, Acetone, RT, read-out: Solubility at RT) was 0.65 mg/mL and the solubility ([4]; cyclohexane, 50 °C, organic solvent or mixture, Cyclohexane, 50° C., read-out: Solubility at 50° C.(mg/mL)) was 0.05 mg/mL. For the same molecule, the solubility ([4]; cyclohexane, organic solvent or mixture, Cyclohexane, RT, read-out: Solubility at RT) was 0.01 mg/mL, the solubility ([4]; organic solvent or mixture, most of other selected solvents (almost insoluble), read-out: solubility) was less than 0.5 mg/mL and the “XRPD at 1 d” value ([4]; ACN, 50° C.) was “Form I”. The “XRPD at 4 d” value ([4]; ACN, RT) was “Form I”, the “XRPD at 1 d” value ([4]; Acetone, 50° C.) was “Form I” and the “XRPD at 4 d” value ([4]; Acetone, RT) was “Form I”. For the same molecule, the “XRPD at 1 d” value ([4]; Cyclohexane, 50° C.) was “Form I”, the “XRPD at 4 d” value ([4]; Cyclohexane, RT) was “Form I” and the “XRPD at 1 d” value ([4]; EA, 50° C.) was “Form I”. The “XRPD at 4 d” value ([4]; EA, RT) was “Form I”, the “XRPD at 1 d” value ([4]; EtOH, 50° C.) was “Form I” and the “XRPD at 4 d” value ([4]; EtOH, RT) was “Form I”. The “XRPD at 1 d” value ([4]; Hept, 50° C.) was “Form I”, the “XRPD at 4 d” value ([4]; Hept, RT) was “Form I” and the “XRPD at 1 d” value ([4]; IPA, 50° C.) was “Form I”. For the same molecule, the “XRPD at 4 d” value ([4]; IPA, RT) was “Form I”, the “XRPD at 1 d” value ([4]; IPAC, 50° C.) was “Form I” and the “XRPD at 4 d” value ([4]; IPAC, RT) was “Form I”. For the same molecule, the “XRPD at 1 d” value ([4]; MEK, 50° C.) was “Form I”, the “XRPD at 4 d” value ([4]; MEK, RT) was “Form I” and the “XRPD at 1 d” value ([4]; MIBK, 50° C.) was “Form I”. The “XRPD at 4 d” value ([4]; MIBK, RT) was “Form I”, the “XRPD at 1 d” value ([4]; MTBE, 50° C.) was “Form I” and the “XRPD at 4 d” value ([4]; MTBE, RT) was “Form I”. The “XRPD at 1 d” value ([4]; MeOH, 50° C.) was “Form I”, the “XRPD at 4 d” value ([4]; MeOH, RT) was “Form I” and the “XRPD at 1 d” value ([4]; Water, 50° C.) was “Form I”. The “XRPD at 4 d” value ([4]; Water, RT) was “Form I”, the “form change during the solubility testing” value ([4]; residual solids by XRPD) was “no form change” and the solubility ([4]; water, 50 °C, water, Water, 50° C., read-out: Solubility at 50° C.(mg/mL)) was 6.73 mg/mL. For the same molecule, the solubility ([4]; water, Water, RT, read-out: Solubility at RT) was 6.15 mg/mL, the “Purity −0 d (Area %)” value ([5]; 0 days (initial)) was 99.77 Area % and the “Purity −3 d” value ([5]; 40° C./75% RH) was 99.74 Area %. For the same molecule, the “Purity −9 d” value ([5]; 40° C./75% RH) was 99.76 Area %, the “Purity −3 d” value ([5]; 60° C.) was 99.73 Area % and the “Purity −9 d” value ([5]; 60° C.) was 99.74 Area %.
